Results: patent US20250114345A1, “COMPOUNDS AND COMPOSITIONS AS CBP/P300 DEGRADERS AND USES THEREOF” (Oncopia Therapeutics, Inc. d/b/a/ SK Life Science Labs, priority 2023, published 2025)

Key:
[1] = biological target: T1, p300 (Homo sapiens, UniProt Q09472); test: P300 degradation, HiBit technology in A549 P300 HiBit cells (2 h); format: cell-based; conditions: 2 hrs post treatment; for Dmax: A549, A549 P300 HiBit cells; for DC50: A549 P300 HiBit cells
T1 construct: host or cells: A549 P300 HiBit cells
Method in brief: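 HiBiT knock-in A549 cells received compound in serial dilution at 37 °C under 5% CO2. Remaining tagged protein was quantified by lytic HiBiT luminescence after 10 min shaking at room temperature, yielding potency and maximal degradation.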

[2] = biological target: T2, CBP (Homo sapiens, UniProt Q92793); test: CBP degradation, HiBit technology in A549 CBP HiBit cells (24 h); format: cell-based; conditions: 24 hrs post treatment
T2 construct: host or cells: A549 CBP HiBit cells
Description: p300 and CBP degradation potency and Dmax were determined using in cell western (ICW) assay technology in H1299 cells or HiBit technology in A549 HiBit cells.
A549 P300 HiBit and A549 CBP HiBit cells were plated in separate 384-well, TC treated, white-opaque, flat-bottomed microplate. Cells were plated at a cell density of 0.2×10^4 cells per well in assay media comprised of F-12K, 10% heat inactivated FBS, and 1% penicillin/streptomycin. Assay microplates containing HiBit cells were placed in a 37° C., 5% CO2, tissue culture incubator and left to equilibrate overnight. The next day cells were treated with serial dilutions of test compound made up of 10 mM stock solutions in DMSO. 384-Well plates containing treated cells were then placed back into a 37° C., 5% CO2, tissue culture incubator. Assay microplates containing A549 P300 HiBit cells were incubated for 2 hrs post treatment before P300 destruction was assessed, while microplates containing A549 CBP HiBit cells were incubated for 24 hrs post treatment before CBP destruction was determined. On the day of each assay time point, microplates were removed from the tissue culture incubator and prepared HiBit Lytic detection buffer (Promega, cat #N3O40) was added to each plate. Plates were covered with aluminum foil and incubated for ten minutes at room temperature on an orbital shaker. After incubation, luminescent signal of each plate was measured using the Envision instrument (Perkin Elmer).

T1 sequence (Q09472 whole entry): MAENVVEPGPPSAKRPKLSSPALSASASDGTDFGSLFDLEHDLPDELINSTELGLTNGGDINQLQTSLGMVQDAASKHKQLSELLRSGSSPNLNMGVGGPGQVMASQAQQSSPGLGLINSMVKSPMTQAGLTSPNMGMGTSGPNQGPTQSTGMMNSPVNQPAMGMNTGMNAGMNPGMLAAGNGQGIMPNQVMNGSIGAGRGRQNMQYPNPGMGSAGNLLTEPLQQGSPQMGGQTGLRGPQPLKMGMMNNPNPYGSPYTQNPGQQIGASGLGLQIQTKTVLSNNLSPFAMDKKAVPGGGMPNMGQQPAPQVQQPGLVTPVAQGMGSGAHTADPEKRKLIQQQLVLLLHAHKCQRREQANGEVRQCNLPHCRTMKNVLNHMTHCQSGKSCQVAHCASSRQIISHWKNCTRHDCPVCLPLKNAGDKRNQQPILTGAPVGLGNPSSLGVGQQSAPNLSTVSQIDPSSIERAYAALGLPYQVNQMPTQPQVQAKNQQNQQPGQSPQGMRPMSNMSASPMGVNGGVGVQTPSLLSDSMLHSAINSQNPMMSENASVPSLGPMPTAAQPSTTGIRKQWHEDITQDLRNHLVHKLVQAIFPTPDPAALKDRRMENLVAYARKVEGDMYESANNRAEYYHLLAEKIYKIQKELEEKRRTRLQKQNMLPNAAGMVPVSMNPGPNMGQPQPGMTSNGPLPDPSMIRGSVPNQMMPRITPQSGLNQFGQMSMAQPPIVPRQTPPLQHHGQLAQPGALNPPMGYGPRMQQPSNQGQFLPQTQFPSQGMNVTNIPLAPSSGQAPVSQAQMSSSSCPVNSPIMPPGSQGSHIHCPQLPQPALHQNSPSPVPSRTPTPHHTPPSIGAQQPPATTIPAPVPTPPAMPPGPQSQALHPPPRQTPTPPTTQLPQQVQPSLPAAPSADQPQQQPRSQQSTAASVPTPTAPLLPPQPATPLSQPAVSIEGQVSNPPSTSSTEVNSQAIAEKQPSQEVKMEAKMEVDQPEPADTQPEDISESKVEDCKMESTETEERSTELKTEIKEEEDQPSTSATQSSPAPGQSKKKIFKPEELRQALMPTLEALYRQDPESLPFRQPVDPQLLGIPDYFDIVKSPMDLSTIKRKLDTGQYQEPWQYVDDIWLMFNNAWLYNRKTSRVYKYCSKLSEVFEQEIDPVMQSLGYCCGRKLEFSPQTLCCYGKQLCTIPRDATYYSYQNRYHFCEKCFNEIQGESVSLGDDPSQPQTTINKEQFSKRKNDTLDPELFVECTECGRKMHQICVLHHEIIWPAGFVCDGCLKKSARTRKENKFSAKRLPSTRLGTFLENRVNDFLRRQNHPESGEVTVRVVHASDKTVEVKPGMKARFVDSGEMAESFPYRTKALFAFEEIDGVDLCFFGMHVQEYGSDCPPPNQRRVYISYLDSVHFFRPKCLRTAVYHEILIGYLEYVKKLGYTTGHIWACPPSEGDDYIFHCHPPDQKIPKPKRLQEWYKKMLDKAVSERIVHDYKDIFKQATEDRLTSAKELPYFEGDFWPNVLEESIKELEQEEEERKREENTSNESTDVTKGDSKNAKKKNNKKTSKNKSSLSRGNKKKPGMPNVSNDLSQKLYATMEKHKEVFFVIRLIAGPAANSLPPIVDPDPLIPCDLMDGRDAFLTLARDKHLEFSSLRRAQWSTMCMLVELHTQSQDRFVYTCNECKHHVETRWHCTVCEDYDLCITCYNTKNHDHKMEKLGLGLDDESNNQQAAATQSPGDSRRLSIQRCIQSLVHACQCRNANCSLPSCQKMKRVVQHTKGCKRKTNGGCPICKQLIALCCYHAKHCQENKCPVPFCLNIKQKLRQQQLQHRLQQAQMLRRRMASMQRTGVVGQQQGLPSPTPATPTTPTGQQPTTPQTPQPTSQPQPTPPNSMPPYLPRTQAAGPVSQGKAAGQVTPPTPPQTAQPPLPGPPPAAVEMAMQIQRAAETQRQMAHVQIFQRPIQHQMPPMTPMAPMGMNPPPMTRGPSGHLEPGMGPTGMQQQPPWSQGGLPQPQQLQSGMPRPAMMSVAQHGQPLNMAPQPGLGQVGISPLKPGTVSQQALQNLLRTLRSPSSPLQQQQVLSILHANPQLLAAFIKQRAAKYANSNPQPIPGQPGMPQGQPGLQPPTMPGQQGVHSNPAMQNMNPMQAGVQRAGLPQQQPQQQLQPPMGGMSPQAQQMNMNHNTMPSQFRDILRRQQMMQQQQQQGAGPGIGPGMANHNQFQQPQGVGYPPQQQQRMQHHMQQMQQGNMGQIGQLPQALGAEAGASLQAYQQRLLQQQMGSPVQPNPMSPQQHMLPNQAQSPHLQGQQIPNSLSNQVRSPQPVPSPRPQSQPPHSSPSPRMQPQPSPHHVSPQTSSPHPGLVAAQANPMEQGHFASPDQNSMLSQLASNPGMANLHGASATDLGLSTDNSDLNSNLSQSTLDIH
T2 sequence (Q92793 whole entry): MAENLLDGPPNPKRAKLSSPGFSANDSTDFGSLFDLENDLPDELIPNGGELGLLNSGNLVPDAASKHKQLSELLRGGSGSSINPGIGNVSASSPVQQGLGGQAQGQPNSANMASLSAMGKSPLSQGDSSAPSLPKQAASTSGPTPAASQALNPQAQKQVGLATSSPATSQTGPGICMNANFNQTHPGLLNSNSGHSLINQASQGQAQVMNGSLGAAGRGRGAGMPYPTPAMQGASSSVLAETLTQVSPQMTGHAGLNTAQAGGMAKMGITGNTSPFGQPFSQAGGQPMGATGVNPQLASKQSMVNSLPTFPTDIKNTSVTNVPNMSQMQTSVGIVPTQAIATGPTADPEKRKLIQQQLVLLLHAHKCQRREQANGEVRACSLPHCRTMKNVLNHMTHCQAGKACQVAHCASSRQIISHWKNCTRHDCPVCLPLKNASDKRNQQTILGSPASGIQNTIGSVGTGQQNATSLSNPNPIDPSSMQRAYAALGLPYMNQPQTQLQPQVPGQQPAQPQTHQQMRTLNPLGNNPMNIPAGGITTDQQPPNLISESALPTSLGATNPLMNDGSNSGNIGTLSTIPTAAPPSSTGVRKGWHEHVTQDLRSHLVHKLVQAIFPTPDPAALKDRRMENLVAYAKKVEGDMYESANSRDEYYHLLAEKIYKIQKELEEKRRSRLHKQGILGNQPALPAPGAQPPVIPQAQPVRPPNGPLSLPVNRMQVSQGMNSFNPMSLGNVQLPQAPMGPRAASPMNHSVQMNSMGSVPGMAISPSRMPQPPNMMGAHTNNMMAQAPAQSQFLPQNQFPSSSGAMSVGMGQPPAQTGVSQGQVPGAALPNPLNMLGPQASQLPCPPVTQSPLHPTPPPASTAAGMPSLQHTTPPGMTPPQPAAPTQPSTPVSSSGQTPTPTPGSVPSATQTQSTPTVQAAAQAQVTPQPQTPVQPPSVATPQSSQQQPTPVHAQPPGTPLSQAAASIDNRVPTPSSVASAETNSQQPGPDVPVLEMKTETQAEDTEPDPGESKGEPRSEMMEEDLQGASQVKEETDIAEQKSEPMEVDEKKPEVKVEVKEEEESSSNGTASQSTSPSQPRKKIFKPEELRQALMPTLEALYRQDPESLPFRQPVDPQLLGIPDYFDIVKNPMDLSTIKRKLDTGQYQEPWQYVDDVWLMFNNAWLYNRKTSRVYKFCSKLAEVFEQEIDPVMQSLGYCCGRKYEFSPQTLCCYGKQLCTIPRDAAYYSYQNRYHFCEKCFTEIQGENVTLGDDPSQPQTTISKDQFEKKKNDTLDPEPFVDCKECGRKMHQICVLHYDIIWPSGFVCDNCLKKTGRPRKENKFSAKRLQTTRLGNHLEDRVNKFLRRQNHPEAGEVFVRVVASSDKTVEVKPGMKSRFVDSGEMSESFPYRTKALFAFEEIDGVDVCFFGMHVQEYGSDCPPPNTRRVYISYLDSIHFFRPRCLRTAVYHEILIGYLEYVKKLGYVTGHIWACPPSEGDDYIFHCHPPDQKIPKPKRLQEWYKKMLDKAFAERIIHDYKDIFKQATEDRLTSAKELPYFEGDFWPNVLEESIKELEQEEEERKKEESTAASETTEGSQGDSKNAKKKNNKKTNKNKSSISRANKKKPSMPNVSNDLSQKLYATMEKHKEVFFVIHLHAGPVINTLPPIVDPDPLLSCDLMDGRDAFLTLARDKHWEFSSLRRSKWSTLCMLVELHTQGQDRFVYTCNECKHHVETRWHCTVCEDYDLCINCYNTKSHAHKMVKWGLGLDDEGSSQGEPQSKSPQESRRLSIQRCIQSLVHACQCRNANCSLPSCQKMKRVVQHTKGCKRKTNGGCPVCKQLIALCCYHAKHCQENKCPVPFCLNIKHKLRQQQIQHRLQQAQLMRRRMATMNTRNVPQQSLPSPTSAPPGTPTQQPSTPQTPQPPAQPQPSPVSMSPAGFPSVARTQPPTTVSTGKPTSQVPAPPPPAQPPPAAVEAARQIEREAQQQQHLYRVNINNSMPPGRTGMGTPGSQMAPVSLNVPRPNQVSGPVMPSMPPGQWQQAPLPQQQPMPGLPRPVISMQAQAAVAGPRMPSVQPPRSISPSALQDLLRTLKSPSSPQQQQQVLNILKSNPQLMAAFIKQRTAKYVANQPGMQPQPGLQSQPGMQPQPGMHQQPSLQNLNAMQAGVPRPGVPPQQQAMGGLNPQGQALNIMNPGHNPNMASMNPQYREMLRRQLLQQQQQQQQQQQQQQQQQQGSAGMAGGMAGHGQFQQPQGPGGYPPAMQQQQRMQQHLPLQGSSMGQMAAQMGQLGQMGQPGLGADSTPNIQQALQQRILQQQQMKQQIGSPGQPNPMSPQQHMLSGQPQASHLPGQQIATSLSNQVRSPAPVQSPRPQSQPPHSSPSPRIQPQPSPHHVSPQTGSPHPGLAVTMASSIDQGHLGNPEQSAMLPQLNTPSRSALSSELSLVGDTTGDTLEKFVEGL

Row | Compound | Dmax [1] | DC50 [1] | DC50 [2] | Dmax [2]
1 | CC(C)c1cc(-c2cccc3cc(-c4ccc(C(=O)NCC#Cc5ccc6cnn(C7CCC(=O)NC7=O)c6c5Cl)nc4)ncc23)cc2c1n(C)c(=O)n2C (stereo not shown) [Example A39, N-(3-(7-Chloro-1-(2,6-dioxopiperidin-3-yl)-1H-indazol-6-yl)prop-2-yn-1-yl)-5-(8-(7-isopropyl-1,3-dimethyl-2-oxo-2,3-dihydro-1H-benzo[d]imidazol-5-yl)isoquinolin-3-yl)picolinamide] | > 80% | 1 to 9.9 nM | 100 to 999 nM | 20 to 39%
2 | Cc1cc(-c2ccc(N(C)c3cc(C4CCOCC4)c4c(c3)n(C)c(=O)n4C)cn2)cnc1C(=O)NCC#Cc1cccc(NC2CCC(=O)NC2=O)c1 (stereo not shown) [Example A45, 5-((1,3-dimethyl-2-oxo-7-(tetrahydro-2H-pyran-4-yl)-2,3-dihydro-1H-benzo[d]imidazol-5-yl) (methyl)amino)-N-(3-(3-((2,6-dioxopiperidin-3-yl)amino)phenyl)prop-2-yn-1-yl)-5′-methyl-[2,3′-bipyridine]-6′-carboxamide] | > 80% | 1 to 9.9 nM | > 1000 nM | < 20%
3 | Cc1cc(-c2ncc(N(C)c3cc(C(C)C)c4c(c3)n(C)c(=O)n4C)cn2)cnc1C(=O)NCC#Cc1cccc(NC2CCC(=O)NC2=O)c1 (stereo not shown) [Example A51, N-(3-(3-((2,6-dioxopiperidin-3-yl)amino)phenyl)prop-2-yn-1-yl)-5-(5-((7-isopropyl-1,3-dimethyl-2-oxo-2,3-dihydro-1H-benzo [d]imidazol-5-yl)(methyl)amino)pyrimidin-2-yl)-3-methylpicolinamide] | > 80% | 1 to 9.9 nM | > 1000 nM | < 20%
4 | Cc1cc(-c2ncc(N(C)c3cc(C4CCOCC4)c4c(c3)n(C)c(=O)n4C)cn2)cnc1C(=O)NCC#Cc1ccc2occ(C3CCC(=O)NC3=O)c2c1 (stereo not shown) [Example A53, 5-(5-((1,3-dimethyl-2-oxo-7-(tetrahydro-2H-pyran-4-yl)-2,3-dihydro-1H-benzo[d]imidazol-5-yl)(methyl)amino)pyrimidin-2-yl)-N-(3-(3-(2,6-dioxo-piperidin-3-yl)benzofuran-5-yl)prop-2-yn-1-yl)-3-methylpicolinamide] | > 80% | < 1 nM | > 1000 nM | < 20%
5 | Cc1cc(-c2ncc(N(C)c3cc(C4CCOCC4)c4c(c3)n(C)c(=O)n4C)cn2)cnc1C(=O)NCC#Cc1ccc2occ([C@@H]3CCC(=O)NC3=O)c2c1 [Example A55, (S)-5-(5-((1,3-dimethyl-2-oxo-7-(tetrahydro-2H-pyran-4-yl)-2,3-dihydro-1H-benzo[d]imidazol-5-yl)(methyl)amino)pyrimidin-2-yl)-N-(3-(3-(2,6-dioxo-piperidin-3-yl)benzofuran-5-yl)prop-2-yn-1-yl)-3-methylpicolinamide] | > 80% | 1 to 9.9 nM | > 1000 nM | < 20%
6 | CC(C)c1cc(C2=CC(C)(C)Oc3cc(-c4ccc(C(=O)NCC#Cc5ccc6occ(C7CCC(=O)NC7=O)c6c5)nc4)c(F)cc32)cc2c1n(C)c(=O)n2C (stereo not shown) [Example A57, N-(3-(3-(2,6-dioxopiperidin-3-yl)benzofuran-5-yl)prop-2-yn-1-yl)-5-(6-fluoro-4-(7-isopropyl-1,3-dimethyl-2-oxo-2,3-dihydro-1H-benzo[d]imidazol-5-yl)-2,2-dimethyl-2H-chromen-7-yl)picolinamide] | > 80% | 10 to 99 nM | > 1000 nM | < 20%
7 | CC(C)c1cc(N2CCOc3cc(-c4ccc(C(=O)NCC#Cc5ccc6occ(C7CCC(=O)NC7=O)c6c5)nc4)ncc32)cc2c1n(C)c(=O)n2C (stereo not shown) [Example A58, N-(3-(3-(2,6-dioxopiperidin-3-yl)benzofuran-5-yl)prop-2-yn-1-yl)-5-(4-(7-isopropyl-1,3-dimethyl-2-oxo-2,3-dihydro-1H-benzo[d]imidazol-5-yl)-3,4-dihydro-2H-pyrido[4,3-b][1,4]oxazin-7-yl)picolinamide] | > 80% | 1 to 9.9 nM | > 1000 nM | < 20%
8 | Cc1cc(-c2cc3cccc(-c4ccc5c(c4)n(C)c(=O)n5C)c3cn2)cnc1C(=O)NCC#Cc1ccc2occ([C@@H]3CCC(=O)NC3=O)c2c1 [Example A61, (S)-5-(8-(1,3-dimethyl-2-oxo-2,3-dihydro-1H-benzo[d]imidazol-5-yl)isoquinolin-3-yl)-N-(3-(3-(2,6-dioxo-piperidin-3-yl)benzofuran-5-yl)prop-2-yn-1-yl)-3-methylpicolinamide] | > 80% | 1 to 9.9 nM | > 1000 nM | < 20%
9 | Cc1cc(-c2cc3cccc(-c4cc(F)c5c(c4)n(C)c(=O)n5C)c3cn2)cnc1C(=O)NCC#Cc1ccc2occ(C3CCC(=O)NC3=O)c2c1 (stereo not shown) [Example A66, N-(3-(3-(2,6-dioxopiperidin-3-yl)benzofuran-5-yl)prop-2-yn-1-yl)-5-(8-(7-fluoro-1,3-dimethyl-2-oxo-2,3-dihydro-1H-benzo[d]imidazol-5-yl)isoquinolin-3-yl)-3-methylpicolinamide] | > 80% | 1 to 9.9 nM | > 1000 nM | < 20%

Further lines, results first:

Row | Dmax [1] | DC50 [1] | DC50 [2] | Dmax [2] | Compound
10 | > 80% | 10 to 99 nM | > 1000 nM | < 20% | Cc1cc(-c2ccc(N(C)c3cc(C(C)C)c4c(c3)n(C)c(=O)n4C)cn2)cnc1C(=O)NCC#Cc1cccc(NC2CCC(=O)NC2=O)c1 (stereo not shown) [Example A34, N-(3-(3-((2,6-Dioxopiperidin-3-yl)amino)phenyl)prop-2-yn-1-yl)-5-((7-isopropyl-1,3-dimethyl-2-oxo-2,3-dihydro-1H-benzo[d]imidazol-5-yl)(methyl)amino)-5′-methyl-[2,3′-bipyridine]-6′-carboxamide]
11 | > 80% | 1 to 9.9 nM | > 1000 nM | < 20% | Cc1cc(-c2ncc(N(C)c3cc(C4CCOCC4)c4c(c3)n(C)c(=O)n4C)cn2)cnc1C(=O)NCC#Cc1ccc2occ([C@H]3CCC(=O)NC3=O)c2c1 [Example A54, (R)-5-(5-((1,3-dimethyl-2-oxo-7-(tetrahydro-2H-pyran-4-yl)-2,3-dihydro-1H-benzo[d]imidazol-5-yl)(methyl)amino)pyrimidin-2-yl)-N-(3-(3-(2,6-dioxopiperidin-3-yl)benzofuran-5-yl)prop-2-yn-1-yl)-3-methylpicolinamide]
12 | > 80% | < 1 nM | 100 to 999 nM | < 20% | Cc1c(-c2ccc(C(=O)NCC#Cc3ccc4occ(C5CCC(=O)NC5=O)c4c3)nc2)ncc2c(-c3ccc4c(c3)n(C)c(=O)n4C)cccc12 (stereo not shown) [Example A63, 5-(8-(1,3-dimethyl-2-oxo-2,3-dihydro-1H-benzo[d]imidazol-5-yl)-4-methylisoquinolin-3-yl)-N-(3-(3-(2,6-dioxo-piperidin-3-yl)benzofuran-5-yl)prop-2-yn-1-yl)picolinamide]
13 | > 80% | 1 to 9.9 nM | > 1000 nM | < 20% | Cn1c(=O)n(C)c2c(F)cc(-c3cccc4cc(-c5ccc(C(=O)NCC#Cc6ccc7occ(C8CCC(=O)NC8=O)c7c6)nc5)ncc34)cc21 (stereo not shown) [Example A64, N-(3-(3-(2,6-dioxopiperidin-3-yl)benzofuran-5-yl)prop-2-yn-1-yl)-5-(8-(7-fluoro-1,3-dimethyl-2-oxo-2,3-dihydro-1H-benzo[d]imidazol-5-yl)isoquinolin-3-yl)picolinamide]
14 | > 80% | 1 to 9.9 nM | > 1000 nM | < 20% | Cc1cc(N2CCOc3nc(-c4ccc(C(=O)NCC#Cc5ccc6occ(C7CCC(=O)NC7=O)c6c5)nc4)ncc32)cc2c1n(C)c(=O)n2C (stereo not shown) [Example A68, N-(3-(3-(2,6-dioxopiperidin-3-yl)benzofuran-5-yl)prop-2-yn-1-yl)-5-(5-(1,3,7-trimethyl-2-oxo-2,3-dihydro-1H-benzo[d]imidazol-5-yl)-6,7-dihydro-5H-pyrimido [4,5-b][1,4]oxazin-2-yl)picolinamide]
15 | > 80% | 1 to 9.9 nM | > 1000 nM | < 20% | Cc1cc(-c2cc3cccc(-c4cc5c(c(N6CC7CCC(C6)O7)n4)n(C)c(=O)n5C)c3cn2)cnc1C(=O)NCC#Cc1ccc2occ(C3CCC(=O)NC3=O)c2c1 (stereo not shown) [Example A69, 5-(8-(4-(8-oxa-3-azabicyclo [3.2.1]octan-3-yl)-1,3-dimethyl-2-oxo-2,3-dihydro-1H-imidazo[4,5-c]pyridin-6-yl)isoquinolin-3-yl)-N-(3-(3-(2,6-dioxo-piperidin-3-yl)benzofuran-5-yl)prop-2-yn-1-yl)-3-methylpicolinamide]
16 | > 80% | 1 to 9.9 nM | > 1000 nM | < 20% | CCN(c1cnc(-c2cnc(C(=O)NCC#Cc3ccc4occ(C5CCC(=O)NC5=O)c4c3)c(C)c2)nc1)c1cc(C(C)C)c2c(c1)n(C)c(=O)n2C (stereo not shown) [Example A70, N-(3-(3-(2,6-dioxopiperidin-3-yl)benzofuran-5-yl)prop-2-yn-1-yl)-5-(5-(ethyl(7-isopropyl-1,3-dimethyl-2-oxo-2,3-dihydro-1H-benzo[d]imidazol-5-yl)amino)pyrimidin-2-yl)-3-methylpicolinamide]
